Measurements published in ChEMBL document CHEMBL1201862, “PubChem BioAssay data set” (2004).
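Method: 48-hour compound exposure of cells in 96-well plates, five concentrations, linear interpolation of endpoints. GI50 = concentration required for 50% inhibition of growth.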 Activity calls are given as the source filed them. Rule as the data show it: active = GI50 up to about 1.1 µM and inactive = higher.

Assays:
Assay in all cases: NCI-60 cell line screen, 48 h
[1] = test system: A498
[2] = test system: SR
[3] = test system: SW-620
[4] = test system: KM12
[5] = test system: IGROV-1
[6] = test system: NCI-H460
[7] = test system: ACHN
[8] = test system: EKVX
[9] = test system: OVCAR-8
[10] = test system: LOX IMVI
[11] = test system: U-251
[12] = test system: SF-295
[13] = test system: OVCAR-3
[14] = test system: NCI-H522
[15] = test system: SK-MEL-5
[16] = test system: NCI-H226
[17] = test system: SF-539
[18] = test system: MOLT-4
[19] = test system: CAKI-1
[20] = test system: 786-0

COc1cc(C=O)cc(/C=N/c2ccc(Br)cc2)c1O
GI50 [1]: 16.4 µM (inactive)
GI50 [2]: 2.68 µM (inactive)
GI50 [3]: 1.25 µM (inactive)
GI50 [4]: 10.2 µM (inactive)
GI50 [5]: 40.3 µM (inactive)
GI50 [6]: 2.71 µM (inactive)
GI50 [7]: 2.53 µM (inactive)
GI50 [8]: 13.6 µM (inactive)
GI50 [9]: 2.86 µM (inactive)
GI50 [10]: 0.16 µM (active)
GI50 [11]: 4.57 µM (inactive)
GI50 [12]: 2.52 µM (inactive)
GI50 [13]: 13.5 µM (inactive)
GI50 [14]: 0.995 µM (active)
GI50 [15]: 2.19 µM (inactive)
GI50 [16]: 2.59 µM (inactive)
GI50 [17]: 2.38 µM (inactive)
GI50 [18]: 22 µM (inactive)
GI50 [19]: 2.93 µM (inactive)

Nc1ccc(C2NC(=O)Cc3c2ccc2ccccc32)cc1 (stereo not drawn)
GI50 [1]: > 100 µM (inactive)
GI50 [2]: > 100 µM (inactive)
GI50 [3]: > 100 µM (inactive)
GI50 [4]: > 100 µM (inactive)
GI50 [5]: > 100 µM (inactive)
GI50 [6]: 71.1 µM (inactive)
GI50 [7]: 58.1 µM (inactive)
GI50 [8]: 84.7 µM (inactive)
GI50 [9]: 56.1 µM (inactive)
GI50 [10]: > 100 µM (inactive)
GI50 [11]: > 100 µM (inactive)
GI50 [12]: 45.5 µM (inactive)
GI50 [13]: 26.1 µM (inactive)
GI50 [14]: > 100 µM (inactive)
GI50 [15]: 61.8 µM (inactive)
GI50 [16]: 34.4 µM (inactive)
GI50 [17]: 90.6 µM (inactive)
GI50 [18]: > 100 µM (inactive)
GI50 [19]: 79.4 µM (inactive)

CCOC(=O)c1c(N2CCCC2)[nH]c(=O)c(C(c2cccs2)c2c(O)c(C(=O)OCC)c(N3CCCC3)[nH]c2=O)c1O
GI50 [1]: > 100 µM (inactive)
GI50 [2]: > 100 µM (inactive)
GI50 [3]: > 100 µM (inactive)
GI50 [4]: > 100 µM (inactive)
GI50 [6]: > 100 µM (inactive)
GI50 [7]: > 100 µM (inactive)
GI50 [8]: > 100 µM (inactive)
GI50 [9]: > 100 µM (inactive)
GI50 [10]: > 100 µM (inactive)
GI50 [11]: > 100 µM (inactive)
GI50 [12]: > 100 µM (inactive)
GI50 [13]: > 100 µM (inactive)
GI50 [14]: > 100 µM (inactive)
GI50 [15]: > 100 µM (inactive)
GI50 [16]: > 100 µM (inactive)
GI50 [17]: > 100 µM (inactive)
GI50 [20]: > 100 µM (inactive)
GI50 [18]: > 100 µM (inactive)
GI50 [19]: > 100 µM (inactive)

Cc1cccc(C)c1NC(=O)CCc1nnc2s/c(=C\c3ccc(N(C)C)cc3)c(=O)n12
GI50 [1]: > 100 µM (inactive)
GI50 [2]: > 100 µM (inactive)
GI50 [3]: > 100 µM (inactive)
GI50 [4]: > 100 µM (inactive)
GI50 [5]: > 100 µM (inactive)
GI50 [6]: > 100 µM (inactive)
GI50 [7]: > 100 µM (inactive)
GI50 [9]: > 100 µM (inactive)
GI50 [10]: > 100 µM (inactive)
GI50 [11]: > 100 µM (inactive)
GI50 [12]: 56.1 µM (inactive)
GI50 [13]: 56.1 µM (inactive)
GI50 [14]: > 100 µM (inactive)
GI50 [15]: > 100 µM (inactive)
GI50 [16]: > 100 µM (inactive)
GI50 [17]: > 100 µM (inactive)
GI50 [20]: > 100 µM (inactive)
GI50 [18]: 53.3 µM (inactive)
GI50 [19]: > 100 µM (inactive)

CCC(CC)C(=O)OC[n+]1ccc(-c2c(COC(=O)NC(C)C)c(COC(=O)NC(C)C)c3n2CCC3)cc1
GI50 [1]: > 100 µM (inactive)
GI50 [2]: 36.7 µM (inactive)
GI50 [3]: > 100 µM (inactive)
GI50 [5]: > 100 µM (inactive)
GI50 [8]: > 100 µM (inactive)
GI50 [9]: > 100 µM (inactive)
GI50 [11]: > 100 µM (inactive)
GI50 [12]: > 100 µM (inactive)
GI50 [13]: > 100 µM (inactive)
GI50 [14]: > 100 µM (inactive)
GI50 [15]: > 100 µM (inactive)
GI50 [16]: > 100 µM (inactive)
GI50 [17]: > 100 µM (inactive)
GI50 [20]: > 100 µM (inactive)
GI50 [18]: > 100 µM (inactive)
GI50 [19]: > 100 µM (inactive)

O=C1CCCSC(=O)N1Cc1ccccc1
GI50 [1]: > 100 µM (inactive)
GI50 [2]: > 100 µM (inactive)
GI50 [3]: > 100 µM (inactive)
GI50 [4]: > 100 µM (inactive)
GI50 [5]: > 100 µM (inactive)
GI50 [6]: > 100 µM (inactive)
GI50 [7]: > 100 µM (inactive)
GI50 [8]: > 100 µM (inactive)
GI50 [9]: > 100 µM (inactive)
GI50 [10]: > 100 µM (inactive)
GI50 [12]: > 100 µM (inactive)
GI50 [13]: > 100 µM (inactive)
GI50 [14]: > 100 µM (inactive)
GI50 [15]: > 100 µM (inactive)
GI50 [16]: > 100 µM (inactive)
GI50 [17]: > 100 µM (inactive)
GI50 [20]: > 100 µM (inactive)
GI50 [18]: > 100 µM (inactive)
GI50 [19]: > 100 µM (inactive)

CC(=O)O[C@H]1C=CC(=O)C(C)CC1C (stereo partly drawn)
GI50 [1]: > 100 µM (inactive)
GI50 [2]: > 100 µM (inactive)
GI50 [3]: 73.5 µM (inactive)
GI50 [4]: > 100 µM (inactive)
GI50 [5]: > 100 µM (inactive)
GI50 [6]: > 100 µM (inactive)
GI50 [7]: > 100 µM (inactive)
GI50 [8]: > 100 µM (inactive)
GI50 [10]: 45.8 µM (inactive)
GI50 [11]: > 100 µM (inactive)
GI50 [12]: > 100 µM (inactive)
GI50 [13]: > 100 µM (inactive)
GI50 [14]: 37.9 µM (inactive)
GI50 [15]: > 100 µM (inactive)
GI50 [16]: > 100 µM (inactive)
GI50 [17]: > 100 µM (inactive)
GI50 [18]: > 100 µM (inactive)
GI50 [19]: > 100 µM (inactive)

Cc1cc2nc3ccccc3n2c2nc(N)ccc12
GI50 [1]: 46.1 µM (inactive)
GI50 [2]: 13.5 µM (inactive)
GI50 [3]: 25.4 µM (inactive)
GI50 [4]: 33 µM (inactive)
GI50 [5]: 28.1 µM (inactive)
GI50 [6]: 4.02 µM (inactive)
GI50 [7]: 15.4 µM (inactive)
GI50 [8]: 53 µM (inactive)
GI50 [9]: 15.8 µM (inactive)
GI50 [10]: 22.1 µM (inactive)
GI50 [12]: 23.3 µM (inactive)
GI50 [13]: 63.7 µM (inactive)
GI50 [14]: 31.6 µM (inactive)
GI50 [15]: 13.6 µM (inactive)
GI50 [16]: 27.2 µM (inactive)
GI50 [17]: 26.5 µM (inactive)
GI50 [20]: 16.7 µM (inactive)
GI50 [18]: 17.7 µM (inactive)
GI50 [19]: 20.9 µM (inactive)
